Entries after “also recorded” stand apart in the source; their conditions may differ. Where a name gives a salt, the structure may show the parent alone. Read-outs that look alike come from different tables or passages of the source.
Experiments:
human colon cancer HT-29 = assay: HT-29 human colon cancer xenograft in immunodeficient mice (Example 2); assay type: in vivo, human (xenograft in immunodeficient NIH-1 mice)
Description: (§1) In these four examples, three xenograft lines of human colon cancer were selected to test the effectiveness of various drugs or compounds in treating human colon cancer. These xenograft lines included the following: (1) A moderate-to-poorly differentiated human colon cancer HT-29; (2) poorly differentiated colon cancer lines designated CASE; and (3) SW48. Liebowitz, A. et al., Cancer Res. 36:4562 (1976); and Fogh, J., et al., Human Tumor Cells […], J. Fogh, ed. Plenum Press, New York, pp. 115-159 (1975). The HT-29, CASE and SW48 cell lines were implanted into immunodeficient NIH-1 mice. Each control or drug-treated group included 6 males. Tumor fragments were implanted on day 0. For each implant, 50 mg of wet weight finely minced tumor tissue in 0.5 ml EMEM (Gibco, Grand Island, N.Y.) was injected under the skin over the right dorsal chest region. The drugs were formulated in Tween 80:0.15 NaCl and injected subcutaneously, with the exception of doxorubicin, which was injected intravenously. The treatment started on day 7 and continued 2x/week for 5-6 weeks. Drug doses were based on an established median toxic dose for the schedule applied. Controls were treated with the solvent only. The tumors were measured in three dimensions with a caliper, and tumor volume calculated. The care and treatment of experimental mice was in accordance with institutional guidelines.
In FIG. 2, 9-AC represents 9-amino-20(RS)-camptothecin. The means of tumor volumes in cubic centimeters (cm^3) were plotted against time; S.D. (standard deviation) of the means was less than 15% of the value.

CASE cell line = assay: CASE human colon cancer xenograft in immunodeficient mice (Examples 3, 4, 6); assay type: in vivo, human (xenograft in immunodeficient NIH-1 mice)
Description: as §1
In Example 3, the CASE cell line was employed.
Example 4 illustrates the results of an experiment in which a second course of treatment followed a first course of treatment. On day 51 after tumor implantation, mice with CASE tumors and minimal disease received the second course of therapy. These mice received a total of 14 injections (doses) of 12.5 mg/kg body weight/dose (FIG. 4).
(§2) Daily injections or 2 injections per week of 10,11-methylenedioxy-20(RS)-camptothecin (total doses 50-70 mg/kg of body weight) stopped the growth of day-7 CASE tumors for a period of 4-6 weeks in 6/6 mice. Five injections of 10,11-methylenedioxy-20(RS)-camptothecin sodium salt (10 mg/kg body weight/dose) stopped the growth of day-7 CASE tumors in 6/6 mice for a period of 4 weeks. Both drugs inhibited at 30 mg/kg body weight (total dose) the growth of metastases of human colon cancer in the liver of immunodeficient mice, and increased the survival of such mice by ~100% (from average of 23 to 46 days).

[1] = test system: SW48 human colon cancer cell line; assay: SW48 human colon cancer xenograft in immunodeficient mice (Example 5); assay type: in vivo, human (xenograft in immunodeficient NIH-1 mice)
Description: as §1
In Example 5, a course of treatment was carried out with the SW48 human colon cancer cell line. This tumor line is extremely unresponsive to treatment. Liebowitz, A., et al., Cancer Res. 36:4562 (1976); and Fogh, J., et al., Human Tumor Cells in Vitro, J. Fogh, ed. Plenum Press, New York, pp. 115-159 (1975).
It should be noted that the first course of treatments of the CASE and SW48 lines, described above, started with well-established tumors, averaging 0.2-0.25 cm^3 in volume. In Example 5, day=35 SW48 tumors (average size 2.5 cm^3), were selected for the first treatment with 9-amino-20(RS)-camptothecin. […]

[2] = overall toxicity in tumor-bearing mice (Example 7); assay type: in vivo
Description: Another important feature of the method provided by the present invention relates to the relatively low or no apparent overall toxicity of the camptothecin compounds administered in accordance herein. Overall toxicity can be judged using various criteria. For example, loss of body weight in a subject over 10% of the initially recorded body weight (i.e., before treatment) can be considered as one sign of toxicity. In addition, loss of overall mobility and activity and signs of diarrhea or cystitis in a subject can also be interpreted as evidence of toxicity. In one of the examples which follow, the overall toxicity of the camptothecin compounds was evaluated.
The overall toxicity of the colon tumor-inhibiting camptothecin compounds was next to be evaluated at various dosages. The overall toxicity of 9-amino-20(RS)-camptothecin, 10,11-methylenedioxy-camptothecin and the sodium salt of 10,11-methylenedioxy-camptothecin was evaluated in this example as follows: tumor fragments were implanted under the skin of 5-6 mice in each group beginning on day 0. The mice were injected with one of the compounds beginning on day 7 after visible signs that malignant growth of the implanted tumor had occurred. The injections of the compound were given at predetermined doses of 10 or 12.5 mg/kg of body weight per week for a total of 3-6 weeks. Injections were daily or given two times per week. The body weights of the controls (mice with tumors, injected with placebo) and that of the drug-treated mice were taken two times each week and recorded. Overall toxicity was determined in the following way: loss of body weight after treatment in a subject of more than 10% over the initial body weight of the subject recorded at the beginning of the experiment, was considered a sign of toxicity. The mice were also monitored for their ability to regain the lost body weight. Regaining entirely its lost body weight would therefore be a sign of low toxicity in a subject. In addition, mice were monitored for their overall mobility and activity as well as for signs of diarrhea or cystitis. Mobility/activity was judged on a sliding scale of 1 to 5. That is, a score of 1 indicated good mobility/activity and a score of 5 indicated poor mobility/activity. Diarrhea and cystitis were judged on a plus/minus basis.

subcutaneous tumors = assay type: in vivo, mice
topoisomerase I = assay: topoisomerase I-directed screens; assay type: biochemical
[3] = test system: metastases of human colon cancer in the liver; assay: metastases of human colon cancer in the liver of immunodeficient mice (Example 6); assay type: in vivo; settings: 30 mg/kg body weight (total dose); for increase of survival: from average of 23 days; for average survival: increased from 23 days
Method: as §2

colon cancer = settings: cited from earlier work
mouse leukemias = settings: in vivo; cited from earlier work
[4] = test system: advanced incurable cancers; settings: cited from earlier work
[5] = first course, 12.5 mg/kg body weight
[6] = daily or 2 injections per week, total doses 50-70 mg/kg
[7] = five injections, 10 mg/kg body weight/dose
[8] = daily treatment, total dose 25 mg/kg
[9] = twice/week treatment, total dose 50 mg/kg
[10] = patients with metastases to the liver

With `CCC1(O)C(=O)OCc2c1cc1n(c2=O)Cc2cc3c(N)cccc3nc2-1` (racemic) [9-amino-20(RS)-camptothecin] the “duration of remission (mean+S.D.)” value (human colon cancer HT-29; 10 mg/kg body weight/dose) was 62 ± 20 days, the “mice with no evidence of disease (NED) or minimal disease (tumor volume=0.1 cm^3)” value (human colon cancer HT-29; 10 mg/kg/dose s.c., twice a week, 6 weeks) was 5/6 and the “duration of remission (mean+S.D.)” value (human colon cancer HT-29; 12.5 mg/kg body weight/dose) was 56 ± 15 days. For the same compound, the “mice with NED or minimal disease” value (human colon cancer HT-29; 12.5 mg/kg body weight/dose) was 6/6, the “reduction of tumor volume (average)” value (human colon cancer HT-29; second course, average tumor size 8.3 cm^3, total dose 60 mg/kg) was 45% and the “long-term tumor-free survival (in excess of 7 months)” value (CASE cell line; CASE tumors, after second course) was 7/8. For the same compound, the “mice with NED or minimal disease” value (CASE cell line; [5]) was 6/6, the “mice with NED” value (CASE cell line; second course, total of 14 doses of 12.5 mg/kg) was 5/6 and the “mice with minimal disease” value (CASE cell line; second course, total of 14 doses of 12.5 mg/kg, of 6 mice) was “the other had minimal disease”. For the same compound, the “long-term tumor-free survival (in excess of 7 months)” value ([1]; after second course, 75 mg/kg total dose) was 6/6, the “mice with NED or minimal disease” value [1, 5] was 6/6 and the “reduction in the volume of the tumors (average)” value ([1]; first treatment of day 35 tumors (average 2.5 cm^3), 6 doses of 12.5 mg/kg, twice a week) was 91%. For the same compound, the “gastrointestinal toxicity or sterile hemorrhagic cystitis” value ([2]; second course, 50-75 mg/kg) was “no signs”, the “toxicity of second course of treatment” value ([2]; second course, 50-75 mg/kg body weight) was “more toxic than the first” and the “Overall Toxicity” value ([2]; twice/week treatment, total dose 150 mg/kg, 150 mg/kg) was “no overall toxicity”. For the same compound, the “Overall Toxicity” value ([2]; twice/week treatment, total dose 150 mg/kg, listed as 9-Amino-20(RS)-camptothecin, 150 mg/kg) was “none”, the “Overall Toxicity: body weight loss” value ([2]; twice/week treatment, total dose 175 mg/kg (cumulative)) was ≤ 20% and the “therapeutic response (in words)” value (subcutaneous tumors; mouse, in vivo) was “completely reducing subcutaneous tumors; also recorded: complete reduction of subcutaneous tumors”.

For `CCC1(O)C(=O)OCc2c1cc1n(c2=O)Cc2cc3cc4c(cc3nc2-1)OCO4` (racemic) [10,11-methylenedioxy-20(RS)-camptothecin], the “mice in which growth of day-7 tumors stopped” value (CASE cell line; [6]) was 6/6, the “period for which growth of day-7 tumors stopped” value (CASE cell line; [6]) was 4-6 weeks and the “activity in topoisomerase I-directed screens” value (topoisomerase I) was “highly active”. The “growth of metastases of human colon cancer in the liver” value [3] was “inhibited”, the increase of survival [3] was ~ 100% and the average survival [3] was 46 days. For the same compound, the “decrease of body weight” value ([2]; 70 mg/kg body weight (total dose)) was “less than 10%”, the “Overall Toxicity” value ([2]; twice/week treatment, total dose 100 mg/kg, 100 mg/kg) was “no overall toxicity” and the “Overall Toxicity” value ([2]; twice/week treatment, total dose 100 mg/kg, listed as 10,11-Methylenedioxy-20(RS), 100 mg/kg) was “none”. The “Overall Toxicity” value ([2]; twice/week treatment, total dose 100 mg/kg, listed as 10,11-methylenedioxy-20(RS) camptothecin, 100 mg/kg) was “no overall toxicity”, the “therapeutic response (in words)” value (subcutaneous tumors; 100 mg/kg, two times per week) was “complete reduction of subcutaneous tumors” and the “therapeutic response (in words)” value (subcutaneous tumors; 100 mg/kg, two times per week, listed as 10,11-methylenedioxy-20(RS) camptothecin) was “completely reducing subcutaneous tumors”.

In the case of `CCC1(O)C(=O)OCc2c1cc1n(c2=O)Cc2cc3cc(N)ccc3nc2-1` (racemic) [10-amino-20(RS)-camptothecin, reference compound], the toxic deaths ([2]; 25 mg/kg body weight) is reported as “toxic deaths of all animals” and the “Overall Toxicity: body weight loss” value ([2]; twice/week treatment, total dose 100 mg/kg) is reported as < 15%.

With `CCC(O)(C(=O)O)c1cc2n(c(=O)c1CO)Cc1cc3cc4c(cc3nc1-2)OCO4` (racemic) [sodium salt of 10,11-methylenedioxy-20(RS)-camptothecin] the “mice in which growth of day-7 tumors stopped” value (CASE cell line; [7]) was 6/6, the “period for which growth of day-7 tumors stopped” value (CASE cell line; [7]) was 4 weeks and the “activity in topoisomerase I-directed screens” value (topoisomerase I) was “highly active”. For the same compound, the “growth of metastases of human colon cancer in the liver” value [3] was “inhibited”, the increase of survival [3] was ~ 100% and the average survival [3] was 46 days. The toxic deaths ([2]; 62.5 mg/kg body weight) was “toxic deaths of all animals”, the “Overall Toxicity” value [2, 8] was “animal deaths” and the “Overall Toxicity: body weight loss” value [2, 8] was < 10%. For the same compound, the “Overall Toxicity” value ([2]; daily treatment, total dose 200 mg/kg) was “animal deaths”, the “Overall Toxicity: body weight loss” value [2, 9] was 20% and the “Overall Toxicity” value ([2]; twice/week treatment, total dose 62.5 mg/kg) was “animal deaths”.

In the case of `O=c1[nH]cc(F)c(=O)[nH]1` [5-fluorouracil], the “growth-retardation of tumor implants” value (human colon cancer HT-29; 80 mg/kg of body weight/dose) is listed as “only marginal growth-retardation”, the “effectiveness in treating colon cancer” value (colon cancer; human, in vivo) is listed as “only marginally effective” and the “cases with temporary improvement” value (colon cancer; [10]) is listed as ≤ 25%. For the same compound, the overall survival (colon cancer; [10]) was “not significantly affected”.

For `CC[C@@]1(O)C(=O)OCc2c1cc1n(c2=O)Cc2cc3ccccc3nc2-1` [20(S)-camptothecin, reference compound], the toxic deaths ([2]; 50 mg/kg body weight) was “toxic deaths of all animals”, the “Overall Toxicity: body weight loss” value ([2]; twice/week treatment, total dose 28 mg/kg) was > 15% and the “Overall Toxicity” value [2, 9] was “animal deaths”. For the same compound, the “Overall Toxicity” value ([2]; twice/week treatment, total dose 70 mg/kg) was “animal deaths” and the “activity against mouse leukemias” value (mouse leukemias) was “effective against mouse leukemias”.

With `CN(Cc1cnc2nc(N)nc(N)c2n1)c1ccc(C(=O)N[C@@H](CCC(=O)O)C(=O)O)cc1` [methotrexate, reference compound] the “growth-retardation of tumor implants” value (human colon cancer HT-29; 160 mg/kg body weight/dose) was “only marginal growth-retardation”.

For `CC[C@@](O)(C(=O)O)c1cc2n(c(=O)c1CO)Cc1cc3ccccc3nc1-2` [sodium salt of 20(S)-camptothecin], the “limiting factor (toxicity)” value ([4]; patients with various cancers) is listed as “Leukopenia”, the “most prominent non-hematological complication” value ([4]; patients with various cancers) is listed as “Hemorrhagic cystitis” and the “gastrointestinal toxicity or sterile hemorrhagic cystitis observed among patients” value ([4]; patients) is listed as “observed”. The clinical response ([4]; several patients, some with colorectal cancer, unresponsive to previous treatments) was “temporary relief of the disease” and the “median survival (in words)” value ([4]; several patients, some with colorectal cancer) was “marginal prolongation of median survival”.

Source: US5225404A, “Methods of treating colon tumors with tumor-inhibiting camptothecin compounds” (New York University, priority 1989, dated 1993)
